Results taken from the NIST ThermoML archive (doi:10.1016/j.fluid.2013.10.022).
± gives the expanded uncertainty stated by the source.

Columns and labels:
[1] = refractive index (Na D-line) (dimensionless); conditions: 298.2 K; 101.33 kPa; Liquid; Standard Abbe refractometry
[2] = 298.2 K; 101.33 kPa; Liquid; Vibrating tube method

Compound | refractive index [1] | mass density [2] [kg/m3]
CCCCCCCCO [octan-1-ol] | 1.4276 ± 0.0008 | 821.69 ± 0.24
CCCCC(CC)CO (configuration not stated) [2-ethyl-1-hexanol] | 1.4293 ± 0.0008 | 830.22 ± 0.24
O [water] | 1.3324 ± 0.0008 | 
CCCC(=O)O [butanoic acid] | 1.3977 ± 0.0008 | 952.68 ± 0.23
